Results taken from patent US20250223281A1, “ANTIDIABETIC COMPOUNDS AND COMPOSITIONS” (REZUBIO PHARMACEUTICALS CO., LTD, priority 2022, published 2025).

Target: T1, GPR40 (Homo sapiens, UniProt O14842)
T1 construct: expressed in transfected cells; host or cells: HEK293 cells stably expressing GPR40 (Hygromycin selection)
Experiment: IP1 accumulation assay in HEK293 cells stably expressing GPR40
Format: cell-based
Method: IP1 accumulation assay was used to evaluate the potency of compounds. HEK293 cells stably expressing GPR40 were cultured in 5% CO2 incubator (ThermoFisher) in maintenance media (Dulbecco's modified Eagle's medium with 4.5 g/L of glucose, 10% fetal bovine serum, 100 μg/mL Hygromycin, and Penicillin (100 U/mL)/Streptomycin (100 μg/mL)) till 100% confluency. Cells were harvested freshly, spun down at 300×g for 5 min, and resuspended in pre-warmed 1× stimulant buffer from Cisbio IP-One HTRF Detection kit (Cisbio). Cell density was adjusted to 2.0×10^6 cells/mL. DMSO was used as blank control and AMG-1638 (CAS #: 1142214-62-7) as positive control. Compounds were prepared at 10 mM in DMSO and 5 nL of 3× serially diluted compounds (10 concentrations) were added to each well of the 384-LDV assay plate (Corning) by using ECHO 550 (Labcyte). Five μL of cells in suspension were transferred into each well by using Multidrop Combi Reagent Dispenser (ThermoFisher). Assay plate was then sealed and incubated at 37° C. for 2 hours. IP-d2 reagent and anti-IP1 reagent were prepared following the manual (Cisbio). Five μL of IP1-d2 and then 5 μL of anti-IP1 antibody was added to each well sequentially. Assay plate was incubated at room temperature for 60 min and then read at 665 nm/615 nm on an Envision plate reader (PerkinElmer). The ratio of values obtained at 665 nm and 615 nm was used for calculation of IP1 accumulation: % Effect=(Ratiosample−Ratioblank)/(RatioAMG-1638−Ratioblank)×100. Dose curve was fitted and EC50 of each compound was calculated by using XLFit.

[1] = IP1 accumulation, HEK293 cells stably expressing GPR40, 2 hours at 37° C., % effect relative to AMG-1638, table of Biological Example 1
[2] = Tables A-1a to A-7b (structure-property relationship), obtained by methods of Biological Example 1

T1 sequence (O14842 whole entry): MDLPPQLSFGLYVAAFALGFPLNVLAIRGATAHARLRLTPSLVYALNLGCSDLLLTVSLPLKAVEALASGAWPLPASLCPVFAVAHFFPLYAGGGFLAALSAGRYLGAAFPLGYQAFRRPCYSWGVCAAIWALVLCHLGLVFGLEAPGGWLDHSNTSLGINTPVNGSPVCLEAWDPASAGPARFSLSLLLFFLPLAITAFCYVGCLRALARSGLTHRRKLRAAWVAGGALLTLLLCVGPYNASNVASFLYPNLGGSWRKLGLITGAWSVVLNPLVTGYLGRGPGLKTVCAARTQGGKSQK

EC50 [1] [nM] | EC50 [2] [nM] | SMILES
298 |  | COc1ccc(F)c(-c2ccc(COc3cccc([C@@H](CC(=O)O)C4CC4)c3)cc2OC(C)(C)Cn2cc(CCCCCCCCCCCCC(=O)NCC[N+](C)(CCC(=O)NCCN)CCC(=O)NCCN)nn2)c1 [Example 30]
2.28 |  | COc1ccc(F)c(-c2ccc(COc3cccc([C@@H](CC(=O)O)C4CC4)c3)cc2OC(C)(C)Cn2cc(CCCCCCCCCCCCCCCCCC(=O)NCCN(CCC(=O)NCCN)CCC(=O)NCCN)nn2)c1 [Example 31]
1.98 |  | COc1ccc(F)c(-c2ccc(COc3cccc([C@@H](CC(=O)O)C4CC4)c3)cc2OC(C)(C)Cn2cc(CCCCCCCCCCCCCCCCCC(=O)NCC[N+](C)(CCC(=O)NCCN)CCC(=O)NCCN)nn2)c1 [Example 32]
36.8 |  | COc1ccc(F)c(-c2ccc(COc3cccc([C@@H](CC(=O)O)C4CC4)c3)cc2C(OCCCCCn2cc(CCCCCCCCCCCCC(=O)NCCN(CCC(=O)NCCN)CCC(=O)NCCN)nn2)C(C)(C)C)c1 (stereo partly drawn) [Example 33]
1.91 |  | COc1ccc(F)c(-c2ccc(COc3cccc([C@@H](CC(=O)O)C4CC4)c3)cc2C(OCCCCCn2cc(CCCCCCCCCCCCC(=O)NCC[N+](C)(CCC(=O)NCCN)CCC(=O)NCCN)nn2)C(C)(C)C)c1 (stereo partly drawn) [Example 34]
1.18 |  | C[C@H](C(=O)O)[C@H](c1ccc2c(c1)O[C@@H](C1CCN(Cc3cc(-c4cn(CCCCCCCCCCCCCCCCCC(=O)NCC[N+](C)(C)C)nn4)ccc3OC(F)(F)F)CC1)CC2)C1CC1 [Example 35]
403 | 403 | C[C@H](C(=O)O)[C@H](c1ccc2c(c1)O[C@@H](C1CCN(Cc3cc(-c4cn(CCCCCCCCCCCC(=O)NCCN(CCC(=O)NCCN)CCC(=O)NCCN)nn4)ccc3OC(F)(F)F)CC1)CC2)C1CC1 [Example 36]
5.42 |  | COc1ccc(F)c(-c2ccc(COc3cccc([C@@H](CC(=O)O)C4CC4)c3)cc2CC(C)(C)Cn2cc(CCCCCCCCCCCCCCCCCC(=O)NCC[N+](C)(C)C)nn2)c1 [Example 38]
0.83 | 0.83 | C[C@H](C(=O)O)[C@H](c1ccc2c(c1)O[C@@H](C1CCN(Cc3cc(-c4cn(CCCCCCCCCCCCCCCC(=O)NCCN(CCC(=O)NCCN)CCC(=O)NCCN)nn4)ccc3OC(F)(F)F)CC1)CC2)C1CC1 [Example 39]
25.3 |  | COc1ccc(F)c(-c2ccc(COc3cccc([C@@H](CC(=O)O)C4CC4)c3)cc2C(C)(C)c2cn(CCCCCCCCCCCCCCCC(=O)NCCN(CCC(=O)NCCN)CCC(=O)NCCN)nn2)c1 [Example 40]
0.29 |  | COc1ccc(C(=O)N(CC(C)(C)CCCCCCn2cc(CCCCCCCCCCCCCCCCCC(=O)NCC[N+](C)(CCC(=O)NCCN)CCC(=O)NCCN)nn2)c2cccc(C)n2)c(N2CCC(COc3cc([C@@H](CC(=O)O)C4CC4)ccn3)CC2)c1 [Example 42]
0.21 | 0.21 | COc1ccc(C(=O)N(CC(C)(C)CCCCCCn2cc(CCCCCCCCCCCCC(=O)NCC[N+](C)(CCC(=O)NCCN)CCC(=O)NCCN)nn2)c2cccc(C)n2)c(N2CCC(COc3cc([C@@H](CC(=O)O)C4CC4)ccn3)CC2)c1 [Example 43]
1.74 |  | COc1ccc(C(=O)N(CC(C)(C)CCCCCCn2cc(CCCCCCCCCCCCCCCCCC(=O)NCC[N+](C)(C)C)nn2)c2cccc(C)n2)c(N2CCC(COc3cc([C@@H](CC(=O)O)C4CC4)ccn3)CC2)c1 [Example 44]
0.68 |  | C[C@H](C(=O)O)[C@H](c1ccc2c(c1)O[C@@H](C1CN(Cc3cc(-c4cn(CCCCCCCCCCCCCCCCCC(=O)NCC[N+](C)(CCC(=O)NCCN)CCC(=O)NCCN)nn4)ccc3OC(F)(F)F)C1)CC2)C1CC1 [Example 45]
2.03 |  | C[C@H](C(=O)O)[C@H](c1ccc2c(c1)O[C@@H](C1CCN(Cc3cc(-c4cn(CCCCCCCCCCCCCCCCCC(=O)NCC[N+](C)(C)CCCS(=O)(=O)[O-])nn4)ccc3OC(F)(F)F)CC1)CC2)C1CC1 [Example 46]
117 |  | COc1ccc(F)c(-c2ccc(COc3cccc([C@@H](CC(=O)O)C4CC4)c3)cc2C(C)(C)c2cn(CCCCCCCCCCCCCCC(=O)NCCN(CCC(=O)NCCN)CCC(=O)NCCN)nn2)c1 [Example 47]
4.7 |  | COc1ccc(F)c(-c2ccc(COc3cccc([C@@H](CC(=O)O)C4CC4)c3)cc2CC(C)(C)Cn2cc(CCCCCCCCCCCCCCCCCC(=O)NCC[N+](C)(C)CCCS(=O)(=O)[O-])nn2)c1 [Example 48]

EC50 [1] [nM] | EC50 [2] [nM] | SMILES
19.9 | 19.9 | COc1ccc(F)c(-c2ccc(COc3cccc([C@@H](CC(=O)O)C4CC4)c3)cc2CC(C)(C)Cn2cc(CCCCCCCCCCCCCCC(=O)NCCN(CCC(=O)NCCN)CCC(=O)NCCN)nn2)c1 [Example 49]
8.46 |  | C[C@H](C(=O)O)[C@H](c1ccc2c(c1)O[C@@H](C1CCN(Cc3cc(-c4cn(CCCCCCCCCCCCCCCCCCN(C)CCOCCOCCOCCOCCN5C[C@H](O)[C@@H](O)[C@H](O)[C@H]5CO)nn4)ccc3OC(F)(F)F)CC1)CC2)C1CC1 [Example 50]
318 |  | COc1ccc(F)c(-c2ccc(COc3cccc([C@@H](CC(=O)O)C4CC4)c3)cc2C(C)(C)c2cn(CCCCCCCCCCCCCCC(=O)NCC[N+](C)(CCC(=O)NCCN)CCC(=O)NCCN)nn2)c1 [Example 51]
26 | 26 | COc1ccc(F)c(-c2ccc(COc3cccc([C@@H](CC(=O)O)C4CC4)c3)cc2CC(C)(C)Cc2cn(CCCCCCCCCCCCCCC(=O)NCCN(CCC(=O)NCCN)CCC(=O)NCCN)nn2)c1 [Example 52]
3.18 | 3.81 | COc1ccc(C(=O)N(CC(C)(C)CCCCCCn2cc(CCCCCCCCC(=O)NCC[N+](C)(CCC(=O)NCCN)CCC(=O)NCCN)nn2)c2cccc(C)n2)c(N2CCC(COc3cc([C@@H](CC(=O)O)C4CC4)ccn3)CC2)c1 [Example 53]
1.71 | 1.71 | COc1ccc(C(=O)N(CC(C)(C)CCCCCCn2cc(CCCCCCCCCCC(=O)NCC[N+](C)(CCC(=O)NCCN)CCC(=O)NCCN)nn2)c2cccc(C)n2)c(N2CCC(COc3cc([C@@H](CC(=O)O)C4CC4)ccn3)CC2)c1 [Example 54]
138 | 138 | COc1ccc(F)c(-c2ccc(COc3cccc([C@@H](CC(=O)O)C4CC4)c3)cc2CC(C)(C)Cn2cc(CCCCCCCCCCCCCC(=O)NCCN(CCC(=O)NCCN)CCC(=O)NCCN)nn2)c1 [Example 55]
1760 | 1760 | COc1ccc(F)c(-c2ccc(COc3cccc([C@@H](CC(=O)O)C4CC4)c3)cc2CC(C)(C)Cn2cc(CCCCCCCCCCC(=O)NCCN(CCC(=O)NCCN)CCC(=O)NCCN)nn2)c1 [Example 56]
63.1 | 93.1 | COc1ccc(F)c(-c2ccc(COc3cccc([C@@H](CC(=O)O)C4CC4)c3)cc2CC(C)(C)Cn2cc(CCCCCCCCCCCCCC(=O)NCC[N+](C)(CCC(=O)NCCN)CCC(=O)NCCN)nn2)c1 [Example 57]
36.5 | 8.14 | COc1ccc(F)c(-c2ccc(COc3cccc([C@@H](CC(=O)O)C4CC4)c3)cc2CC(C)(C)Cn2cc(CCCCCCCCCCCCCCC(=O)NCC[N+](C)(CCC(=O)NCCN)CCC(=O)NCCN)nn2)c1 [Example 58]
1260 | 1260 | COc1ccc(F)c(-c2ccc(COc3cccc([C@@H](CC(=O)O)C4CC4)c3)cc2CC(C)(C)Cn2cc(CCCCCCCCCCC(=O)NCC[N+](C)(CCC(=O)NCCN)CCC(=O)NCCN)nn2)c1 [Example 59]
0.44 |  | COc1ccc(C(=O)N(CC(C)(C)CCCCCCn2cc(CCCCCCCCCCCCC(=O)NCCN(CC(=O)NCCN)CC(=O)NCCN)nn2)c2cccc(C)n2)c(N2CCC(COc3cc([C@@H](CC(=O)O)C4CC4)ccn3)CC2)c1 [Example 60]
0.23 |  | COc1ccc(C(=O)N(CC(C)(C)CCCCCCn2cc(CCCCCCCCCCCCC(=O)NCC[N+](C)(CC(=O)NCCN)CC(=O)NCCN)nn2)c2cccc(C)n2)c(N2CCC(COc3cc([C@@H](CC(=O)O)C4CC4)ccn3)CC2)c1 [Example 61]
0.68 |  | COc1ccc(C(=O)N(CC(C)(C)CCCCCCCCCCCCCCCCCCCC(=O)NCCN(CC(=O)NCCN)CC(=O)NCCN)c2cccc(C)n2)c(N2CCC(COc3cc([C@@H](CC(=O)O)C4CC4)ccn3)CC2)c1 [Example 64]
0.28 |  | COc1ccc(C(=O)N(CC(C)(C)CCCCCCCCCCCCCCCCCCCC(=O)NCC[N+](C)(CCC(=O)NCCN)CCC(=O)NCCN)c2cccc(C)n2)c(N2CCC(COc3cc([C@@H](CC(=O)O)C4CC4)ccn3)CC2)c1 [Example 65, (S)-3-((2-aminoethyl)amino)-N-(3-((2-aminoethyl)amino)-3-oxopropyl)-N-(2-(22-(2-(4-(((4-(2-carboxy-1-cyclopropylethyl)pyridin-2-yl)oxy)methyl)piperidin-1-yl)-4-methoxy-N-(6-methylpyridin-2-yl)benzamido)-21,21-dimethyldocosanamido)ethyl)-N-methyl-3-oxopropan-1-aminium chloride]
0.49 |  | C[C@H](C(=O)O)[C@H](c1ccc2c(c1)O[C@@H](C1CCN(Cc3cc(-n4cc(CCCCCCCCCCCCCCCCCC(=O)NCC[N+](C)(C)CCCS(=O)(=O)[O-])nn4)ccc3OC(F)(F)F)CC1)CC2)C1CC1 [Example 66]
